Reference: US12070505B2, “Targeted peptide-drug conjugates” (priority 2021, dated 2024)
Like-named read-outs stand apart in the source and are kept apart here.

How the values were obtained:
[1] = tested on: gastric adenocarcinoma cells (AGS); assay: Cytotoxicity, MTS cell viability assay, AGS; conditions: for reduction of cell survival: 72 h
Protocol: (§1) In Vitro Cytotoxicity Assay of Peptide-Drug Conjugates. […] In brief, CCRF-CEM cells were seeded at 50,000 cells in 0.1 mL per well in 98-well plates. In the case of other cell lines, the cells were seeded at 5,000 cells (0.1 mL per well in 96-well plates). […] Dox (5 μM) was used as a positive control, while water and cell culture medium were used as negative controls. The compounds were dissolved in water; water was used as a negative control to normalize the data. After the incubation period, MTS reagent (20 μL) was added to each well. The incubation was continued for 2 h. Cell viability was then determined by determination of the fluorescence intensity at 490 nm using a SpectraMax M2 microplate spectrophotometer. The percentage of cell viability was then calculated using the following equation: [(OD value of cells treated with the compound)−(OD value of culture medium)]/[(OD value of control cells)−(OD value of culture medium)]×100% (FIGS. 6-9).

[2] = tested on: uterine sarcoma cells (MES-SA/MX2)
Protocol: as §1

[3] = tested on: SK-OV-3 cells; assay: Cytotoxicity, MTS cell viability assay, SK-OV-3 (Example 1)
Protocol: as §1

[4] = tested on: CCRF-CEM cells; conditions: 3 h incubation; cited from earlier work
[5] = Cytotoxicity, MTS assay, normal heart muscle cells (Example 1); conditions: rat, H9C2 heart/myocardium cells
Protocol: (§2) In Vitro Cytotoxicity Assay of Peptide-Drug Conjugates. The cytotoxicity of the compounds was determined by using human leukemia cell line (CCRF-CEM), human ovarian adenocarcinoma cells (SKOV-3) cells, kidney cell line (LLC-PK1), gastric adenocarcinoma cells (AGS), and heart/myocardium cells (H9C2) to evaluate the toxicity of the generated peptides according to a previously reported procedure (Rahman, A.; et al. Proc. Am. Assoc. Cancer Res. 26:2295-2299, 1985, which is incorporated herein by reference). In brief, CCRF-CEM cells were seeded at 50,000 cells in 0.1 mL per well in 98-well plates. In the case of other cell lines, the cells were seeded at 5,000 cells (0.1 mL per well in 96-well plates). The cells were seeded in medium (RPMI-1640 containing FBS (10%)), 24 h prior to the experiment. The compounds at different concentrations (10-50 μM) were added to each well in triplicate and incubated for 24 and 72 h at 37° C. in a humidified atmosphere of 5% CO2. Dox (5 μM) was used as a positive control, while water and cell culture medium were used as negative controls. The compounds were dissolved in water; water was used as a negative control to normalize the data. After the incubation period, MTS reagent (20 μL) was added to each well. The incubation was continued for 2 h. Cell viability was then determined by determination of the fluorescence intensity at 490 nm using a SpectraMax M2 microplate spectrophotometer.

[6] = tested on: H9C2 cells; assay: as above
Protocol: as §2

[7] = tested on: LLC-PK1 kidney cells; assay: Cytotoxicity, MTS assay, normal kidney cells; conditions: for Cell Viability (%) after 24 h / Cell Viability (%) after 72 h: normal kidney LLC-PK1
Protocol: as §2

[8] = Cytotoxicity, MTS assay, normal kidney cells; conditions: pig, LLC-PK1 kidney cells
Protocol: as §2

[9] = tested on: CCRF-CEM cells; assay: Cytotoxicity, MTS cell viability assay, CCRF-CEM
Protocol: as §1

N=C(N)NCCC[C@@H]1NC(=O)[C@H](CCCCNC(=O)[C@H](Cc2c[nH]c3ccccc23)NC(=O)[C@H](Cc2c[nH]c3ccccc23)NC(=O)[C@H](Cc2c[nH]c3ccccc23)NC(=O)[C@H](Cc2c[nH]c3ccccc23)NC(=O)[C@H](Cc2c[nH]c3ccccc23)NC(=O)[C@H](Cc2c[nH]c3ccccc23)NC(=O)[C@H](Cc2c[nH]c3ccccc23)NC(=O)CCN)NC(=O)[C@H](CCCNC(=N)N)NC(=O)[C@H](CCCNC(=N)N)NC(=O)[C@H](CCCNC(=N)N)NC(=O)[C@H](CCCNC(=N)N)NC1=O [[R5K]W7A]
Cell Viability (%) after 24 h ([1]; 5 μM): 103 ± 3% | Cell Viability (%) after 72 h ([1]; 5 μM): 108 ± 1% | Cell Viability (%) after 24 h ([1]; 10 μM): 104 ± 1% | Cell Viability (%) after 72 h ([1]; 10 μM): 94 ± 2% | Cell Viability (%) after 24 h ([1]; 25 μM): 105 ± 2% | Cell Viability (%) after 72 h ([1]; 25 μM): 76 ± 1% | reduction of cell survival ([1]; 25 μM): 24% | Cell Viability (%) after 24 h ([1]; 50 μM): 79 ± 1% | Cell Viability (%) after 72 h ([1]; 50 μM): 21 ± 1% | reduction of cell survival ([1]; 50 μM): 87% | cytotoxicity ([1]; 5 and 10 μM, 24 and 72 h): did not generate any significant cytotoxicity | Cell Viability (%) after 72 h ([2]; 10 μM): 110 ± 4% | Cell Viability (%) after 72 h ([2]; 25 μM): 19 ± 2% | reduction of cell viability ([2]; 25 μM, 72 h): ~80% | Cell Viability (%) after 24 h ([3]; 5 μM): 79 ± 1% | Cell Viability (%) after 72 h ([3]; 5 μM): 102 ± 8% | Cell Viability (%) after 24 h ([3]; 10 μM): 76 ± 0% | Cell Viability (%) after 72 h ([3]; 10 μM): 101 ± 1% | Cell Viability (%) after 24 h ([3]; 25 μM): 70 ± 6% | Cell Viability (%) after 72 h ([3]; 25 μM): 81 ± 3% | reduction of cell viability / cytotoxicity ([3]; 25 μM, 72 h): 19% | cytotoxicity of peptide alone ([3]; 5, 10, and 25 μM, 24 h): 21-30% | fold improved uptake of F′-GpYEEI [4]: approximately 48 fold | fold improved uptake of emtricitabine (F′-FTC) [4]: ~27 fold | fold improved uptake of stavudine (F′-d4T) [4]: ~36 fold | viability at 72 h, 10 µM [5]: 105 ± 3% | Cell Viability (%) after 24 h ([6]; normal heart H9C2, 10 μM): 101 ± 0% | cytotoxicity ([7]; LLC-PK1, 5-50 μM, 72 h): did not generate any significant cytotoxicity | Cell Viability (%) after 24 h ([7]; 5 μM): 94 ± 1% | Cell Viability (%) after 72 h ([7]; 5 μM): 98 ± 3% | Cell Viability (%) after 24 h ([7]; 10 μM): 86 ± 1% | Cell Viability (%) after 72 h ([7]; 10 μM): 100 ± 1% | viability at 24 h, 5 µM [8]: 94 ± 1% | viability at 24 h, 10 µM [8]: 86 ± 1% | viability at 24 h, 25 µM [8]: 82 ± 1% | viability at 24 h, 50 µM [8]: 71 ± 1% | viability at 72 h, 5 µM [8]: 98 ± 3% | viability at 72 h, 10 µM [8]: 100 ± 1% | viability at 72 h, 25 µM [8]: 97 ± 1% | viability at 72 h, 50 µM [8]: 97 ± 3% | Cell Viability (%) after 24 h ([9]; 5 μM): 90 ± 1% | Cell Viability (%) after 72 h ([9]; 5 μM): 68 ± 4% | Cell Viability (%) after 24 h ([9]; 10 μM): 68 ± 4% | Cell Viability (%) after 72 h ([9]; 10 μM): 73 ± 6% | Cell Viability (%) after 24 h ([9]; 25 μM): 32 ± 0% | Cell Viability (%) after 72 h ([9]; 25 μM): 24 ± 9% | reduction of cell viability ([9]; 25 μM, 24 h): 68% | cytotoxicity of peptide alone ([9]; concentrations other than 25 μM, even after 72 h): 10-22%

COc1cccc2c1C(=O)c1c(O)c3c(c(O)c1C2=O)C[C@@](O)(C(=O)CO)C[C@@H]3O[C@H]1C[C@H](NC(=N)CCCSSC[C@H](NC(C)=O)C(=O)N[C@@H](Cc2c[nH]c3ccccc23)C(=O)N[C@@H](Cc2c[nH]c3ccccc23)C(=O)N[C@@H](Cc2c[nH]c3ccccc23)C(=O)N[C@@H](Cc2c[nH]c3ccccc23)C(=O)N[C@@H](Cc2c[nH]c3ccccc23)C(=O)N[C@@H](Cc2c[nH]c3ccccc23)C(=O)N[C@@H](Cc2c[nH]c3ccccc23)C(=O)NCCCC[C@@H]2NC(=O)[C@H](CCCNC(=N)N)NC(=O)[C@H](CCCNC(=N)N)NC(=O)[C@H](CCCNC(=N)N)NC(=O)[C@H](CCCNC(=N)N)NC(=O)[C@H](CCCNC(=N)N)NC2=O)[C@H](O)[C@H](C)O1 [[R5K]W7C-S-S-Dox]
viability at 24 h, 5 µM [5]: 98 ± 1% | viability at 24 h, 10 µM [5]: 91 ± 1% | viability at 24 h, 25 µM [5]: 92 ± 1% | viability at 72 h, 5 µM [5]: 106 ± 1% | viability at 72 h, 10 µM [5]: 117 ± 1% | viability at 72 h, 25 µM [5]: 105 ± 2% | viability at 96 h, 5 µM [5]: 104 ± 1% | viability at 96 h, 10 µM [5]: 113 ± 3% | viability at 96 h, 25 µM [5]: 108 ± 1% | cytotoxicity ([6]; H9C2, 5-10 and 25 μM, any incubation time): did not show any cytotoxicity
